Where a name gives a salt, the structure may show the parent alone.
Assays:
Type in all cases: physicochemical
aqueous solubility = assay: aqueous solubility
pH in aqueous solution = settings: (native) pH of the aqueous solution of the salt
[1] = hygroscopicity at relative humidity

With CN[C@H]1CC[C@@H](c2ccc(Cl)c(Cl)c2)c2ccccc21 [sertraline L-tartaric acid salt, L-Tartaric Acid Salt of Sertraline] the aqueous solubility (aqueous solubility) was 4800 µg/mL, the “pH in aqueous solution” value (pH in aqueous solution) was 3.0 and the hygroscopicity ([1]; at 100% relative humidity) was “less than 0.1%”.

For CN[C@H]1CC[C@@H](c2ccc(Cl)c(Cl)c2)c2ccccc21 [sertraline benzenesulfonic acid salt, Benzenesulfonic Acid Salt of Sertraline], the aqueous solubility (aqueous solubility) was 900 µg/mL, the “pH in aqueous solution” value (pH in aqueous solution) was 4.6 and the hygroscopicity ([1]; at 90% relative humidity) was “approximately 0.3%”.

In the case of CN[C@H]1CC[C@@H](c2ccc(Cl)c(Cl)c2)c2ccccc21 [sertraline benzoic acid salt, Benzoic Acid Salt of Sertraline], the aqueous solubility (aqueous solubility) is reported as 520 µg/mL, the “pH in aqueous solution” value (pH in aqueous solution) is reported as 5.2 and the hygroscopicity ([1]; at 100% relative humidity) is reported as “approximately 0.1%”.

In the case of CN[C@H]1CC[C@@H](c2ccc(Cl)c(Cl)c2)c2ccccc21 [sertraline p-toluenesulfonic acid salt, P-Toluenesulfonic Acid Salt of Sertraline], the aqueous solubility (aqueous solubility) is reported as 400 µg/mL, the “pH in aqueous solution” value (pH in aqueous solution) is reported as 4.1 and the hygroscopicity ([1]; at 90% relative humidity) is reported as “approximately 0.1%”.

With CN[C@H]1CC[C@@H](c2ccc(Cl)c(Cl)c2)c2ccccc21 [sertraline (−)-camphor-10-sulfonic acid salt] [(−)-Camphor-10-sulfonic Acid Salt of Sertraline] the aqueous solubility (aqueous solubility) was 1500 µg/mL, the “pH in aqueous solution” value (pH in aqueous solution) was 4.6 and the hygroscopicity ([1]; at 100% relative humidity) was “approximately 0.4%”.

For CN[C@H]1CC[C@@H](c2ccc(Cl)c(Cl)c2)c2ccccc21 [sertraline fumaric acid salt, Fumaric Acid Salt of Sertraline], the aqueous solubility (aqueous solubility) was 2800 µg/mL, the “pH in aqueous solution” value (pH in aqueous solution) was 3.4 and the hygroscopicity ([1]; at 90% relative humidity) was “approximately 0.3%”.
